Among the data in ChEMBL document CHEMBL1147540, “Design, synthesis, and SAR of 2-dialkylamino-4-arylpyrimidines as potent and selective corticotropin-releasing factor(1) (CRF(1)) receptor antagonists” (Bioorg Med Chem Lett, 2004) are Ki and EC50 values, retold here.

Assay [1] concerns the target T1, Corticotropin-releasing factor receptor 1 (Homo sapiens, UniProt P34998).
T1 sequence (P34998 whole entry): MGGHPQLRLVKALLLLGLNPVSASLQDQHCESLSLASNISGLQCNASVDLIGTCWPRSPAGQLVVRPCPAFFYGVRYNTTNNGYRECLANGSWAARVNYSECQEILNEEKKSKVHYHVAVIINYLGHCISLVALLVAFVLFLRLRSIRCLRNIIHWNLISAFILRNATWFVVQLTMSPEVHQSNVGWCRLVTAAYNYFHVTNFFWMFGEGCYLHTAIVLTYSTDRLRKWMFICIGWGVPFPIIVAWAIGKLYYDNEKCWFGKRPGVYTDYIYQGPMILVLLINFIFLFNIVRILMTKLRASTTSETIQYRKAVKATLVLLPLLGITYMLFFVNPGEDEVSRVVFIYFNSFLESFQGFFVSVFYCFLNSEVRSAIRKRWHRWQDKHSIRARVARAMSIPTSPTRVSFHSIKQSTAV
Put plainly: biochemical. It counts as cell-based, CHO.

Assay [2] deals with T1, Corticotropin-releasing factor receptor 1. Put plainly: Binding affinity towards human Corticotropin releasing factor receptor 1 by the displacement of [125I]CRF from CHO cells; IA means Inactive. Type of assay: cell-based.
Assay [3] concerns the target T2, Corticotropin-releasing factor receptor 2 (Homo sapiens, UniProt Q13324).
T2 sequence (Q13324 whole entry): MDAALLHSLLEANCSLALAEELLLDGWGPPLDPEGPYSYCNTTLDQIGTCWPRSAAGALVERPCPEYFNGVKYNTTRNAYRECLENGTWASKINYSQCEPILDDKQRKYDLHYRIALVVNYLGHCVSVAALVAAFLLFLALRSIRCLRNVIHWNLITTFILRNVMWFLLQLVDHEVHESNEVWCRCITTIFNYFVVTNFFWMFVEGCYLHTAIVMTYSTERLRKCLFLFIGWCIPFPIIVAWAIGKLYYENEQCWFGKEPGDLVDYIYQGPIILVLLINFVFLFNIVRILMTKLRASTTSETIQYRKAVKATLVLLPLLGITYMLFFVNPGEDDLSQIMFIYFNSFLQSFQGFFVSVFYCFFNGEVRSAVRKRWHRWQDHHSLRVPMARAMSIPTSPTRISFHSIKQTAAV
Put plainly: Binding affinity towards human Corticotropin releasing factor receptor 2 by the displacement of [125I]CRF from CHO cells; IA means Inactive. It counts as cell-based.

For assay [4], the target named is T1, Corticotropin-releasing factor receptor 1. Put plainly: Effective dose against CRF stimulated cAMP production in CHO cells expressing human Corticotropin releasing factor receptor 1. Type of assay: functional, cell-based.
The target is the same in assay [5]. Put plainly: Effective dose against human Corticotropin releasing factor receptor 1 stimulated ACTH release from primary rat anterior pituitary cell cultures. Type of assay: functional, cell-based, Pituitary gland cell.

Structures are written as SMILES.

`CCCN(c1nccc(-c2c(OC)cc(OC)cc2OC)n1)[C@@H](c1ccccc1)C1CC1`: the affinity in assay [1], expressed as Ki, was 240 nM.
Still for that read-out and setting: to `C=CCN(c1nccc(-c2c(OC)cc(OC)cc2OC)n1)C(C1CC1)C1CC1` belongs 100 nM.
For the compound `COc1cc(OC)c(-c2ccnc(N)n2)c(OC)c1`, the Ki result in assay [2] is “Not Active”.
With `CCCN(c1ncc(C)c(-c2ccc(OC)cc2OC)n1)C(C1CC1)C1CC1`, in assay [1], the Ki is 19 nM.
In the case of `CCCN(c1nccc(-c2c(OC)cc(OC)cc2OC)n1)C1(c2cccs2)CC1`, the Ki in assay [1] was 250 nM.
For the compound `COc1cc(OC)c(-c2ccnc(NC(C3CC3)C3CC3)n2)c(OC)c1`, the Ki result in assay [2] was “Not Active”.
Consider `CCCN(c1nccc(-c2ccc(OC)cc2OC)n1)C(C1CC1)C1CC1`, for which, in assay [1], affinity was put at a Ki of 460 nM.
Still for that read-out and setting: to `CCCN(c1nccc(-c2c(OC)cc(OC)cc2OC)n1)C1(c2ccoc2)CC1` belongs 700 nM; to `CCCN(c1ncc(C)c(-c2c(OC)cc(OC)cc2OC)n1)C(C1CC1)C1CC1`, 15 nM; to `CCCN(c1ncc(C)c(-c2ccc(Br)cc2)n1)C(C1CC1)C1CC1`, 49 nM.
Still for that read-out and setting: to `CCCN(c1nccc(-c2c(F)cc(OC)cc2OC)n1)C(C1CC1)C1CC1` belongs 63 nM; to `CCCN(c1ncc(CC)c(-c2ccc(OC)cc2OC)n1)C(C1CC1)C1CC1`, 860 nM.
Consider `CCCN(c1nccc(-c2c(Cl)cc(OC)cc2OC)n1)C(C1CC1)C1CC1`, for which the Ki in assay [1] is 11 nM; in assay [3] it was “Not Active”. The EC50 came to 1600 nM in assay [4] and 1100 nM in assay [5].
Regarding `CCCN(c1ncc(C(=O)OC)c(-c2ccc(OC)cc2OC)n1)C(C1CC1)C1CC1`, the Ki entry in assay [2] was “Not Active”.
The same measure, in the same setting: as for `CCCN(c1nc(C)c(C)c(-c2ccc(Br)cc2)n1)C(C1CC1)C1CC1`, the entry is “Not Active”; as for `CCCN(c1nccc(-c2c(OC)cc(OC)cc2OC)n1)c1cccc2ccccc12`, “Not Active”.
Regarding `CCCN(c1nccc(-c2c(OC)cc(OC)cc2OC)n1)C(C1CC1)C1CC1`, the Ki in assay [1] was 15 nM; in assay [3], “Not Active”. The EC50 was found to be 990 nM in assay [4] and 970 nM in assay [5].
In turn, `CCCN(c1ncc(C)c(-c2ccc(Br)cc2C)n1)C(C1CC1)C1CC1` gave a Ki in assay [1] of 63 nM.
